Reference: patent US20120178971A1, “Process for Isolation of a Novel Compound 5,8A-DI-1-Propyl 1-Octahydronapthalen-1-(2H) One,Trachyspermum AMI (Ajowan Caraway) Seeds” (ALIGARH MUSLIM UNIVERSITY, priority 2011, published 2012)
Converted amounts (≈) assume the structure as drawn.

Experiments:
[1] = system: crude GTF of Streptococcus mutans; assay: Inhibition of water insoluble glucan synthesis; format: biochemical; settings: 4.88 μl/ml
Procedure: FIG. 6: Inhibitory effects of the compound on insoluble glucan synthesis by crude GTF of Streptococcus mutans. The % insoluble glucan synthesis is the relative amount (%) ±SD (n=3)
The influence of different concentrations was assessed for the synthesis of insoluble glucan.

Streptococcus mutans [2] = assay: Determination of MIC; format: cell-based; settings: against Streptococcus mutans
[3] = system: Streptococcus mutans biofilm; assay: Confocal laser scanning microscopy of Streptococcus mutans biofilm; format: cell-based; settings: 78.13 μ/ml, 24 h incubation
Procedure: FIG. 4: CLSM images of Streptococccus mutans biofilm formed in the presence or absence of the compound after 24 h incubation. The results are expressed as the means ±standard deviations of triplicate assays.
The biofilm of Streptococcus mutans was analyzed under the confocal laser scanning microscope to observe the changes in its morphology as shown in FIG. 4. […] The cells in the treated sample were more spread out and dispersed. Each panel of the image is a representative view of 141.145 μm by 141.145 μm along the xy axis. The xy analysis provides the biofilm surface coverage, while the z-section analyses establish the thickness of the biofilm. The control cells have biofilms that are clumped and less spread along the xy lane, show a thickness of 19.74±0.5 μm. […] The cells wee individually scattered over the surface rather than in any arrangement.

Streptococcus mutans [4] = assay: Sucrose dependent cell adherence of Streptococcus mutans; format: cell-based
Description: FIG. 2: Inhibitory effect of the compound on the extent of sucrose dependent cell adherence of Streptococcus mutans. The % cell adherence is the relative amount (%) of adherent cells at different concentrations of the compound as compared to the cells attached in the absence of any compound. Each value is an average of triplicate assays and each bar indicates ±SD (n=3).

Streptococcus mutans [5] = assay: Inhibition of acid production (pH of culture medium); format: cell-based
Procedure: […] At a concentration of 78.13 μg/ml, there is maximum reduction in acid production as is evident by an increase in pH from 4.7 (control) to 7.5.

[6] = system: Streptococcus mutans biofilm; assay: Streptococcus mutans biofilm formation; format: cell-based
Procedure: FIG. 3: Inhibitory effect of the compound on the biofilm formed by Streptococcus mutans. The % biofilm formed is the relative (%) of biofilm formed at different concentrations of the compound as compared to that in the absence of any compound. Each value is an average of triplicate assays and each bar indicates ±SD (n=3)
The biofilm formation was assessed using increasing concentration of the compound. […] As observed in the adherence, the inhibitory effect was also found to be in a dose dependent manner.

Streptococcus mutans [7] = assay: Inhibition of acid production (pH of culture medium); format: cell-based; remark: listed apart in the source
Streptococcus mutans [8] = assay: Cell surface hydrophobicity of Streptococcus mutans; format: cell-based; settings: 9.76 μg/ml, compared to untreated condition
Description: FIG. 5: Inhibitory effect of compound on the hyrdophobicity of Streptococcus mutans where all the concentrations were taken in triplicates.
It was shown that the cell surface hydrophobocity of S. mutans is affected following treatment with the compound obtained from Trachyspermum ammi as shown in figure.

## CCCC1CCCC2(CCC)C(=O)CCCC12 (centres unmarked) [the compound, 5,8a-di-1 propyl-octahydronapthalen-1-(2H)-one]
[1]
  reduction in the synthesis of insoluble glucan: 25%
Streptococcus mutans [2]
  MIC: 156 µg/mL (≈ 661 µM)
[3]; CLSM
  biofilm morphology: complete absence of clumped cells
[3]; CLSM z-section
  thickness of the biofilm: 12.8±0.7 µm
Streptococcus mutans [4]; 9.77 μg/ml
  reduction in adherence: 30%
Streptococcus mutans [4]; sucrose dependent adherence
  least concentration to give at least 50% inhibition of adherence: 39.06 µg/mL
Streptococcus mutans [5]; 2.44 μg/ml
  pH ± SD (after 24 h): 4.77 ± 1.69
Streptococcus mutans [5]; 4.88 μg/ml
  pH ± SD (after 24 h): 4.84 ± 1.20
Streptococcus mutans [5]; 9.76 μg/ml
  pH ± SD (after 24 h): 5.49 ± 1.05
Streptococcus mutans [5]; 19.53 μg/ml
  pH ± SD (after 24 h): 5.62 ± 1.96
Streptococcus mutans [5]; 39.01 μg/ml
  pH ± SD (after 24 h): 5.68 ± 6.78
Streptococcus mutans [5]; 78.13 μg/ml
  pH ± SD (after 24 h): 6.48 ± 5.97
Streptococcus mutans [5]; 156.25 μg/ml
  pH ± SD (after 24 h): 7.55 ± 2.65
[6]; 78.13 μg/ml
  biofilm formation: inhibited the biofilm formation
[6]; 156.25 μg/ml (MIC)
  biofilm formation: completely inhibited the biofilm formation
Streptococcus mutans [7]; 2.44 μg/ml
  pH ± SD (onset): 7.28 ± 0.09
Streptococcus mutans [7]; 4.88 μg/ml
  pH ± SD (onset): 7.24 ± 1.33
Streptococcus mutans [7]; 9.76 μg/ml
  pH ± SD (onset): 7.33 ± 1.11
Streptococcus mutans [7]; 19.53 μg/ml
  pH ± SD (onset): 7.38 ± 1.91
Streptococcus mutans [7]; 39.01 μg/ml
  pH ± SD (onset): 7.43 ± 1.13
Streptococcus mutans [7]; 78.13 μg/ml
  pH ± SD (onset): 7.43 ± 0.15
Streptococcus mutans [7]; 156.25 μg/ml
  pH ± SD (onset): 7.38 ± 1.29
Streptococcus mutans [8]
  cell surface hydrophobicity: drastically reduced the cell surface hydrophobicity to more than half
